A value given as a limit tells only on which side of the number the result lay.

In this experiment the target is T1, Plk-1 (Homo sapiens, UniProt P53350).
T1 construct: purchased Cyclex
The experiment can be described thus: ELISA-based Polo-like Kinase-1 activity assay (Cyclex). It is filed as biochemical. The note with it: compound at 10 uM, 10 mU purified Plk-1, 50 uM ATP, 30 minutes at 30° C. On the procedure:
An ELISA-based Polo-like Kinase-1 activity assay (Cyclex, Nagano Japan) was used to confirm the Plk-1 inhibitory activity of the illustrative compound of the invention having the structure shown below. [drawing 39]
Briefly, 10 mU of purified Plk-1 (Cyclex) was incubated with the compound of interest in triplicate wells of a substrate-coated 96-well plate, along with 50 uM ATP and kinase buffer, for 30 minutes at 30° C. Wells were washed and probed with the anti-phospho-threonine antibody, incubated for 30 minutes at room temperature, then washed and probed again with an HRP-Anti Rabbit IgG. HRP substrate was added and the extent of phosphorylation was measured using a dual-wavelength spectrophotometer. At a concentration of 10 uM, compound (IB-10) inhibited Plk-1 activity in this assay by greater than 60%.
An ELISA-based Polo-like Kinase-1 activity assay (Cyclex, Nagano Japan) was used to confirm the Plk-1 inhibitory activity of the illustrative compound of the invention having the structure shown below (Compound 18, Table 1). [drawing 40]
Briefly, 10 mU of purified Plk-1 (Cyclex) was incubated with the compound in triplicate wells of a substrate-coated 96-well plate, along with 50 uM ATP and kinase buffer, for 30 minutes at 30° C. […] HRP substrate was added and the extent of phosphorylation was measured using a dual-wavelength spectrophotometer.
For orientation: An ELISA detects its analyte on a solid surface through an enzyme-linked reagent.

T1 sequence (P53350 whole entry): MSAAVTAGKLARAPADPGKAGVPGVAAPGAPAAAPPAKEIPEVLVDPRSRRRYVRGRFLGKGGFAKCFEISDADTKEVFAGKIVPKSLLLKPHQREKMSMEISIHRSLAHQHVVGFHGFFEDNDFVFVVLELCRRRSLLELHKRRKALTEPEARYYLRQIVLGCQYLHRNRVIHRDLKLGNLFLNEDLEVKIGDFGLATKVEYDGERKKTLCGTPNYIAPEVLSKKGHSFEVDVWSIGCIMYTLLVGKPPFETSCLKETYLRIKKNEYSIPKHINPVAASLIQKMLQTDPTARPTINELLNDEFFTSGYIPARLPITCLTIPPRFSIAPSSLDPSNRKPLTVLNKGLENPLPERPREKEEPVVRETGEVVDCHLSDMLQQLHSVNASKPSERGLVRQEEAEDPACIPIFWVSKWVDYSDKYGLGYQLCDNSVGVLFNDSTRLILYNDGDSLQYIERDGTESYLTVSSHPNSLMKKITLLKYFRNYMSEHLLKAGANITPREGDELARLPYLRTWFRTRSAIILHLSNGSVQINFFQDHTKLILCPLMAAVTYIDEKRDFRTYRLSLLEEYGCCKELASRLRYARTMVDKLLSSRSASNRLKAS

`COc1cc2nncc(Nc3ccc(S(=O)(=O)NC(C)=O)cc3)c2cc1OC` [Compound 18, N-Acetyl-4-(6,7-dimethoxy-cinnolin-4-ylamino)-benzenesulfonamide]: under “remaining activity”, the “Plk-1 activity reduced to % of untreated controls” value is 88%.

Turning to `NC(=O)c1nnc2cc(Cl)c(F)cc2c1/N=C/c1ccc([N+](=O)[O-])cc1` [IB-10, (E)-4-(4-nitrobenzylideneamino)-7-chloro-6-fluorocinnoline-3-carboxamide], the inhibition at 10 µM (read-out: inhibited Plk-1 activity) was over 60%.

The values are drawn from patent US20060264439A1, “Inhibitors of polo-like kinase-1” (SuperGen, Inc., priority 2005, published 2006).
